Laboratory results taken from patent US8815881B2 (Hoffmann-La Roche Inc., priority 2010, dated 2014).

target: BACE2 enzyme ectodomain (Homo sapiens (Human), UniProt Q9Y5Z0); assay: Fluorescent-peptide cleavage assay for BACE2 inhibition; assay type: biochemical; conditions: assay b): fluorescent-peptide cleavage, pH 4.5 (superscript b)
Description: b) Fluorescent-Peptide Cleavage Assay for BACE2 Inhibition
BACE2 enzyme ectodomain (derived from plasmid “pET17b-T7-hu proBACE2”) was prepared as described in Ostermann et al., “Crystal Structure of Human BACE2 in Complex with a Hydroxyethylamine Transition-state Inhibitor”, Journal of Molecular Biology 2006, 355, 249-261. The pro-enzyme was stored at 4° C. at a concentration of 70 μg/ml.
A fluorescent peptide with the amino acid sequence WS EVNLD AEFRC-MR121 was synthesised and a stock solution of 1.5 mM in DMSO prepared and stored at −20° C. MR121 is a fluorophore with an excitation wavelength of 630 nm and emission wavelength of 695 nm. The MR121 fluorescence is quenched by the N-terminal tryptophan until the peptide is cleaved by BACE2.
Assays were all made in a Corning 384-well black polystyrene non-binding surface microtitre plate with clear flat bottom and using a Plate:Vision (Perkin Elmer) fluorescence reader. To perform the assay an 80 nM solution of BACE2 was prepared in assay buffer (assay buffer is 100 mM Na-acetate; 20 mM EDTA; 0.05% BSA; pH 4.5) and incubated at room temperature for 1 hour to activate the enzyme. 39 μl of the activated BACE2 was placed in each assay well, followed by 1 μl compound to be tested at an appropriate concentration in 100% DMSO. The plate was then mixed and incubated for 10 minutes at room temperature. To start the assay, 10 μl of a 1.5 μM solution fluorescent peptide in assay buffer was added and the fluorescence intensity in the assay mixture measured at 695 nm with an excitation wavelength of 630 nm for 30 minutes.
The assay readout is the rate of change of fluorescence intensity giving a relative measure of BACE2 activity. Small values correspond to high inhibition and larger values to low inhibition. To determine IC50 values (i.e. the concentration inhibiting the enzyme activity by 50%) of the compound for BACE2, typically, 15 assays were made with a range of concentrations chosen empirically to give low, high and intermediate inhibition of the protease. IC50 values were determined using these assay values generated for a range of inhibitor concentrations and the curve fitting software XLfit (IDBS) using the Sigmoidal Dose-Response Model.

BACE2 enzyme ectodomain, sequence (Q9Y5Z0 63-473): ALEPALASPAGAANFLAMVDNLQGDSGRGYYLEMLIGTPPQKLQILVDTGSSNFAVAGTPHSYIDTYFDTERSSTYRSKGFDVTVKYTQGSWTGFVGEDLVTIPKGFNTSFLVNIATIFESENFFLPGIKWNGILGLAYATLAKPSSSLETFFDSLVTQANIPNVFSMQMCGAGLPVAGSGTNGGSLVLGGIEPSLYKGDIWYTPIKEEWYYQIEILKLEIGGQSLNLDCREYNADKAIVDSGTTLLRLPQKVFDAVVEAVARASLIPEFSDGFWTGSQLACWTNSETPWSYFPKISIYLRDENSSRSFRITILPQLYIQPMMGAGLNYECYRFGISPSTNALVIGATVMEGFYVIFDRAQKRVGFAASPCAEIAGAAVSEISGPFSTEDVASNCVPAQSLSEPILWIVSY

Compound	IC50 [nM]
COc1ccc(Cl)cc1Nc1ccc(F)c([C@@]2(C)N=C(N)N(C)C(=O)C2(C)C)c1 [Example 150, (S)-2-Amino-6-(5-(5-chloro-2-methoxyphenylamino)-2-fluorophenyl)-3,5,5,6-tetramethyl-5,6-dihydropyrimidin-4(3H)-one]	21
CN1C(=O)C(C)(C)[C@@](C)(c2cc(Nc3ccc(C#N)cc3C(F)(F)F)ccc2F)N=C1N [Example 163, (S)-4-(3-(2-Amino-1,4,5,5-tetramethyl-6-oxo-1,4,5,6-tetrahydropyrimidin-4-yl)-4-fluorophenylamino)-3-(trifluoromethyl)benzonitrile]	62
CN1C(=O)C(C)(C)[C@@](C)(c2cc(Nc3ccc(C(F)(F)F)nc3)ccc2F)N=C1N [Example 173, (S)-2-Amino-6-(2-fluoro-5-(6-(trifluoromethyl)pyridin-3-ylamino)phenyl)-3,5,5,6-tetramethyl-5,6-dihydropyrimidin-4(3H)-one]	400
CN1C(=O)C(C)(C)[C@@](C)(c2cc(Nc3cncc(F)c3)ccc2F)N=C1N [Example 174, (S)-2-Amino-6-(2-fluoro-5-(5-fluoropyridin-3-ylamino)phenyl)-3,5,5,6-tetramethyl-5,6-dihydropyrimidin-4(3H)-one]	150
CN1C(=O)C(C)(C)[C@@](C)(c2cc(Nc3ccc(C#N)cc3OC(F)(F)F)ccc2F)N=C1N [Example 161, (S)-4-(3-(2-Amino-1,4,5,5-tetramethyl-6-oxo-1,4,5,6-tetrahydropyrimidin-4-yl)-4-fluorophenylamino)-3-(trifluoromethoxy)benzonitrile]	13
CN1C(=O)C(C)(C)[C@@](C)(c2cc(Nc3cncc(C(F)(F)F)c3)ccc2F)N=C1N [Example 175, (S)-2-Amino-6-(2-fluoro-5-(5-(trifluoromethyl)pyridin-3-ylamino)phenyl)-3,5,5,6-tetramethyl-5,6-dihydropyrimidin-4(3H)-one]	250
CN1C(=O)C(C)(C)[C@@](C)(c2cc(Nc3cc(F)c(C#N)cc3F)ccc2F)N=C1N [Example 166, (S)-4-(3-(2-Amino-1,4,5,5-tetramethyl-6-oxo-1,4,5,6-tetrahydropyrimidin-4-yl)-4-fluorophenylamino)-2,5-difluorobenzonitrile]	80
CN1C(=O)C(C)(C)[C@@](C)(c2cc(Nc3ccc(OCC(F)(F)F)nc3)ccc2F)N=C1N [Example 172, (S)-2-Amino-6-(2-fluoro-5-(6-(2,2,2-trifluoroethoxy)pyridin-3-ylamino)phenyl)-3,5,5,6-tetramethyl-5,6-dihydropyrimidin-4(3H)-one]	110
CC(C)C(=O)Nc1ccc(F)c([C@@]2(C)N=C(N)N(C)C(=O)C2(C)C)c1 [Example 151, N-[3-((S)-2-Amino-1,4,5,5-tetramethyl-6-oxo-1,4,5,6-tetrahydro-pyrimidin-4-yl)-4-fluoro-phenyl]-isobutyramide]	100
Cc1ccc(Nc2ccc(F)c([C@@]3(C)N=C(N)N(C)C(=O)C3(C)C)c2)cc1C#N [Example 169, 5-[3-((S)-2-Amino-1,4,5,5-tetramethyl-6-oxo-1,4,5,6-tetrahydro-pyrimidin-4-yl)-4-fluoro-phenylamino]-2-methyl-benzonitrile]	180
CN1C(=O)C(C)(C)[C@@](C)(c2cc(Nc3ccc(S(C)(=O)=O)cc3)ccc2F)N=C1N [Example 164, (S)-2-Amino-6-(2-fluoro-5-(4-(methylsulfonyl)phenylamino)phenyl)-3,5,5,6-tetramethyl-5,6-dihydropyrimidin-4(3H)-one]	1090
CN1C(=O)C(C)(C)[C@@](C)(c2cc(NC3CCCC3C#N)ccc2F)N=C1N (stereo partly drawn) [Example 162, 2-[3-((S)-2-Amino-1,4,5,5-tetramethyl-6-oxo-1,4,5,6-tetrahydro-pyrimidin-4-yl)-4-fluoro-phenylamino]-cyclopentanecarbonitrile]	120
